# In ChEMBL document CHEMBL4417631, “Oral peptide inhibitors of interleukin-23 receptor and their use to treat inflammatory bowel diseases” (2017):
# Where a SMILES comes first, the peptide text is derived from it.
# Molecular target: T1, Interleukin-23 receptor (Homo sapiens, UniProt Q5VWK5)
# T1 sequence (Q5VWK5 whole entry): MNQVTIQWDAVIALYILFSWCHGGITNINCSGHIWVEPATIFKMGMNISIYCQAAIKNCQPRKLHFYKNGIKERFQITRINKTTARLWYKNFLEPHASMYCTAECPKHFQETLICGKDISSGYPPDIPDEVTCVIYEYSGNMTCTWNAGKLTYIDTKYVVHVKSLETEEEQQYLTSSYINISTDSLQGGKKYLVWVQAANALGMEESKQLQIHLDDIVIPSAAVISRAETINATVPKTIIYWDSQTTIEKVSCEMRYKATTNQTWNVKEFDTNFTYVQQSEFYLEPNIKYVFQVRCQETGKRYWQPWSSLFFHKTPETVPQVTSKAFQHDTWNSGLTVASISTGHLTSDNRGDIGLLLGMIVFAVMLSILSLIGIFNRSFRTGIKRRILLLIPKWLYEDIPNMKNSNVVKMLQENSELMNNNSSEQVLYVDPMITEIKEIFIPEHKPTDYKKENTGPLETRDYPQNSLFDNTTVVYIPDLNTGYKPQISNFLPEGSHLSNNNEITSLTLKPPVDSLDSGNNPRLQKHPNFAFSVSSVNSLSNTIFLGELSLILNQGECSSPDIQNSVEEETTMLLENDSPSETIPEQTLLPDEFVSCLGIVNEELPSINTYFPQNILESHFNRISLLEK
# Assay: Inhibition of interleukin-23 binding to human interleukin-23 receptor incubated for 2 hrs by competitive binding ELISA
row,Structure (SMILES),IC50 [nM]
1,CC(=O)N[C@@H](CS)C(=O)N[C@@H](C)C(=O)N[C@@H](CC(=O)O)C(=O)N[C@@H](Cc1c[nH]c2ccccc12)C(=O)N[C@H](C(=O)N[C@@H](CS)C(=O)N[C@@H](Cc1ccc(O)cc1)C(=O)N[C@@H](Cc1c[nH]c2ccccc12)C(=O)N[C@@H](Cc1cnc[nH]1)C(=O)N[C@H](C(=O)N[C@@H](Cc1ccccc1)C(=O)NCC(=O)NCCC(=O)N[C@H](CCCCNC(=O)COCC(=O)NCCCC[C@@H](NC(=O)CCNC(=O)CNC(=O)[C@H](Cc1ccccc1)NC(=O)[C@@H](NC(=O)[C@H](Cc1cnc[nH]1)NC(=O)[C@H](Cc1c[nH]c2ccccc12)NC(=O)[C@H](Cc1ccc(O)cc1)NC(=O)[C@H](CS)NC(=O)[C@@H](NC(=O)[C@H](Cc1c[nH]c2ccccc12)NC(=O)[C@H](CC(=O)O)NC(=O)[C@H](C)NC(=O)[C@H](CS)NC(C)=O)C(C)C)[C@@H](C)O)C(=O)O)C(=O)O)[C@@H](C)O)C(C)C,25 to 100
2,CC(=O)N[C@@H](CS)C(=O)N[C@@H](CCC(N)=O)C(=O)N[C@H](C(=O)N[C@@H](Cc1c[nH]c2ccccc12)C(=O)N[C@@H](CCC(N)=O)C(=O)N[C@@H](CS)C(=O)N[C@@H](Cc1ccc(O)cc1)C(=O)N[C@@H](Cc1c[nH]c2ccccc12)C(=O)N[C@@H](CC(C)C)C(=O)N[C@@H](CCC(=O)O)C(=O)N[C@@H](CC(N)=O)C(=O)NCC(N)=O)[C@@H](C)O,< 500
3,CC(=O)N[C@H]1CCSC[C@@H](C(=O)N[C@@H](Cc2ccc(Cl)c(Cl)c2)C(=O)N[C@@H](Cc2ccc3ccccc3c2)C(=O)NC(C)(C)C(=O)N[C@@H](CCC(=O)O)C(=O)N[C@@H](CC(N)=O)C(=O)NCC(N)=O)NC(=O)[C@H](CCC(N)=O)NC(=O)[C@H](Cc2c[nH]c3ccccc23)NC(=O)[C@H]([C@@H](C)O)NC(=O)[C@H](CCC(N)=O)NC1=O,100 to 1000
4,CC(=O)N[C@H]1CCSC[C@@H](C(=O)N[C@@H](Cc2ccc(OCCN)cc2)C(=O)N[C@@H](Cc2ccc3ccccc3c2)C(=O)N[C@@](C)(CCCCN)C(=O)N[C@@H](CCC(=O)O)C(=O)N[C@@H](CC(N)=O)C(=O)NCC(N)=O)NC(=O)[C@H](CCC(N)=O)NC(=O)[C@H](CCCNCc2ccccc2)NC(=O)[C@H]([C@@H](C)O)NC(=O)[C@H](CCC(N)=O)NC1=O,> 3000
5,CC(=O)N[C@@H](CS)C(=O)N[C@@H](CCCNC(=N)N)C(=O)N[C@H](C(=O)N[C@@H](Cc1c[nH]c2ccccc12)C(=O)N[C@@H](CCC(=O)O)C(=O)N[C@@H](CS)C(=O)N[C@@H](Cc1ccc(O)cc1)C(=O)N[C@@H](Cc1c[nH]c2ccccc12)C(=O)N[C@@H](Cc1cnc[nH]1)C(=O)N[C@@H](CCC(=O)O)C(=O)N[C@@H](CCC(N)=O)C(=O)N[C@@H](CO)C(N)=O)[C@@H](C)O (Ac-CRTWECYWHEQS-NH2),< 500
6,C[C@@H](O)[C@H](NC(=O)[C@H](CCC(=O)O)NC(=O)[C@@H](N)CS)C(=O)N[C@@H](Cc1c[nH]c2ccccc12)C(=O)N[C@@H](CCC(=O)O)C(=O)N[C@@H](CS)C(=O)N[C@@H](Cc1ccc(O)cc1)C(=O)N[C@@H](Cc1c[nH]c2ccccc12)C(=O)N[C@@H](Cc1cnc[nH]1)C(=O)N[C@@H](CO)C(=O)N[C@@H](Cc1ccccc1)C(=O)N[C@@H](CO)C(N)=O (H-CETWECYWHSFS-NH2),> 1000
7,CC(C)[C@H](NC(=O)[C@H](Cc1c[nH]c2ccccc12)NC(=O)[C@H](CC(=O)O)NC(=O)[C@H](C)NC(=O)[C@@H](N)CS)C(=O)N[C@@H](CS)C(=O)N[C@@H](Cc1ccc(O)cc1)C(=O)N[C@@H](Cc1cccc2ccccc12)C(=O)N(C)[C@@H](Cc1cnc[nH]1)C(=O)N[C@H](C(=O)N[C@@H](Cc1ccccc1)C(=O)O)[C@@H](C)O,> 1000
8,CC(C)[C@H](NC(=O)[C@H](Cc1c[nH]c2ccccc12)NC(=O)[C@H](CC(=O)O)NC(=O)[C@H](C)NC(=O)[C@@H](N)CS)C(=O)N[C@@H](CS)C(=O)N[C@@H](Cc1ccc(O)cc1)C(=O)N[C@@H](Cc1cccc2ccccc12)C(=O)N[C@@H](Cc1cnc[nH]1)C(=O)N[C@H](C(=O)N[C@@H](Cc1ccccc1)C(=O)N(C)CC(=O)O)[C@@H](C)O,> 1000
9,CC(=O)N[C@@H](CS)C(=O)N[C@@H](C)C(=O)N[C@@H](CC(=O)O)C(=O)N[C@@H](Cc1c[nH]c2ccccc12)C(=O)N[C@H](C(=O)N[C@@H](CS)C(=O)N[C@@H](Cc1ccc(O)cc1)C(=O)N[C@@H](Cc1cccc2ccccc12)C(=O)N[C@@H](Cc1cnc[nH]1)C(=O)NC(C)(C)C(=O)N[C@H](Cc1ccccc1)C(=O)NCC(N)=O)C(C)C,> 1000
10,C[C@@H](O)[C@H](NC(=O)[C@@H](NC(=O)[C@@H](N)CS)[C@@H](C)O)C(=O)N[C@@H](Cc1c[nH]c2ccccc12)C(=O)N[C@@H](CCCCN)C(=O)N[C@@H](CS)C(=O)N[C@@H](Cc1ccc(O)cc1)C(=O)N[C@@H](Cc1c[nH]c2ccccc12)C(=O)N[C@@H](Cc1cnc[nH]1)C(=O)N[C@@H](CCC(N)=O)C(=O)N[C@@H](Cc1ccc(O)cc1)C(=O)NCC(N)=O (H-CTTWKCYWHQYG-NH2),500 to 1000
11,CC(=O)N[C@@H](CS)C(=O)N[C@@H](C)C(=O)N[C@@H](CC(=O)O)C(=O)N[C@@H](Cc1c[nH]c2ccccc12)C(=O)N[C@H](C(=O)N[C@@H](CS)C(=O)N[C@@H](Cc1ccc(O)cc1)C(=O)N[C@@H](Cc1c[nH]c2ccccc12)C(=O)N[C@@H](Cc1cnc[nH]1)C(=O)N[C@@H](CCCNC(=N)N)C(=O)N[C@@H](Cc1cnc[nH]1)C(=O)N[C@@H](C)C(=O)N[C@@H](CC(=O)O)C(=O)N[C@@H](CCCNC(=N)N)C(=O)N[C@H](C(=O)N[C@@H](CCCCN)C(N)=O)C(C)C)C(C)C (Ac-CADWVCYWHRHADRVK-NH2),< 500
12,CC(=O)N[C@@H](CS)C(=O)N[C@@H](C)C(=O)N[C@@H](CC(=O)O)C(=O)N[C@@H](Cc1c[nH]c2ccccc12)C(=O)N[C@H](C(=O)N[C@@H](CS)C(=O)N[C@@H](Cc1ccc(O)cc1)C(=O)N[C@@H](Cc1c[nH]c2ccccc12)C(=O)N[C@@H](Cc1cnc[nH]1)C(=O)N[C@@H](CCCCNC(=O)COCC(=O)NCCCC[C@H](NC(=O)[C@H](Cc1cnc[nH]1)NC(=O)[C@H](Cc1c[nH]c2ccccc12)NC(=O)[C@H](Cc1ccc(O)cc1)NC(=O)[C@H](CS)NC(=O)[C@@H](NC(=O)[C@H](Cc1c[nH]c2ccccc12)NC(=O)[C@H](CC(=O)O)NC(=O)[C@H](C)NC(=O)[C@H](CS)NC(C)=O)C(C)C)C(=O)N[C@@H](Cc1ccccc1)C(=O)NCC(=O)O)C(=O)N[C@@H](Cc1ccccc1)C(=O)NCC(=O)O)C(C)C,> 10000

# Now from value to compound:
row,IC50 [nM],Structure (SMILES)
1,> 1000,CC(=O)N[C@H](CCCCN)C(=O)NCCC(=O)N[C@@H](CS)C(=O)N[C@@H](C)C(=O)N[C@@H](CC(=O)O)C(=O)N[C@@H](Cc1c[nH]c2ccccc12)C(=O)N[C@H](C(=O)N[C@@H](CS)C(=O)N[C@@H](Cc1ccc(O)cc1)C(=O)N[C@@H](Cc1c[nH]c2ccccc12)C(=O)N[C@@H](Cc1cnc[nH]1)C(=O)N[C@H](C(=O)N[C@@H](Cc1ccccc1)C(=O)NCC(=O)O)[C@@H](C)O)C(C)C
2,< 500,CC(=O)N[C@@H](CS)C(=O)N[C@@H](C)C(=O)N[C@@H](CC(=O)O)C(=O)N[C@@H](Cc1c[nH]c2ccccc12)C(=O)N[C@H](C(=O)N[C@@H](CS)C(=O)N[C@@H](Cc1ccc(O)cc1)C(=O)N[C@@H](Cc1c[nH]c2ccccc12)C(=O)N[C@@H](Cc1cnc[nH]1)C(=O)N[C@H](C(=O)N[C@@H](Cc1ccccc1)C(=O)NCC(=O)NCCC(=O)N[C@H](CCCCN)C(=O)O)[C@@H](C)O)C(C)C
3,7570,CSC[C@H](NC(=O)[C@H](CCC(N)=O)NC(=O)[C@H](Cc1c[nH]c2ccccc12)NC(=O)[C@@H](NC(=O)[C@H](CCCNC(=N)N)NC(=O)[C@H](C)NC(C)=O)[C@@H](C)O)C(=O)N[C@@H](Cc1ccc(O)cc1)C(=O)N[C@@H](Cc1c[nH]c2ccccc12)C(=O)N[C@@H](CCCNC(=N)N)C(=O)N[C@@H](CCCCN)C(=O)N[C@@H](Cc1ccccc1)C(=O)NCC(=O)NCCOCC(=O)N[C@H](CCCCN)C(N)=O
4,> 1000,CC(=O)N[C@@H](CS)C(=O)N[C@@H](C)C(=O)N[C@@H](CC(=O)O)C(=O)N[C@@H](Cc1c[nH]c2ccccc12)C(=O)N[C@H](C(=O)N[C@@H](CS)C(=O)N[C@@H](Cc1ccc(O)cc1)C(=O)N[C@@H](Cc1c[nH]c2ccccc12)C(=O)N(C)[C@@H](Cc1cnc[nH]1)C(=O)N[C@H](C(=O)N[C@@H](Cc1ccccc1)C(=O)NCC(=O)NCCOCC(=O)N[C@H](CCCCN)C(N)=O)[C@@H](C)O)C(C)C
5,< 500,CC(=O)N[C@@H](CS)C(=O)N[C@@H](C)C(=O)N[C@@H](CC(=O)O)C(=O)N[C@@H](Cc1c[nH]c2ccccc12)C(=O)N[C@H](C(=O)N[C@@H](CS)C(=O)N[C@@H](Cc1ccc(O)cc1)C(=O)N[C@@H](Cc1c[nH]c2ccccc12)C(=O)N[C@@H](Cc1cnc[nH]1)C(=O)N[C@H](C(=O)N[C@@H](Cc1ccccc1)C(=O)NCC(=O)NCCOCC(=O)N[C@H](CCCCN)C(=O)O)[C@@H](C)O)C(C)C
6,6000,CC(=O)N[C@@H](CS)C(=O)N[C@@H](C)C(=O)N[C@@H](CC(=O)O)C(=O)N[C@@H](Cc1c[nH]c2ccccc12)C(=O)N[C@H](C(=O)N[C@@H](CS)C(=O)N[C@@H](Cc1ccc(O)cc1)C(=O)N[C@@H](Cc1c[nH]c2ccccc12)C(=O)N[C@@H](CCCN)C(=O)N[C@@](C)(CC(C)C)C(=O)N[C@@H](Cc1ccccc1)C(=O)NCC(=O)NCCOCC(=O)N[C@H](CCCCN)C(N)=O)C(C)C
7,< 500,CC(=O)N[C@@H](CS)C(=O)N[C@@H](C)C(=O)N[C@@H](CC(=O)O)C(=O)N[C@@H](Cc1c[nH]c2ccccc12)C(=O)N[C@H](C(=O)N[C@@H](CS)C(=O)N[C@@H](Cc1ccc(O)cc1)C(=O)N[C@@H](Cc1c[nH]c2ccccc12)C(=O)N[C@@H](Cc1cnc[nH]1)C(=O)N[C@H](C(=O)N[C@@H](Cc1ccccc1)C(=O)NCC(=O)N[C@@H](CCC(=O)O)C(=O)N[C@@H](CCCNC(=N)N)C(N)=O)[C@@H](C)O)C(C)C
